Experimental data taken from patent US7683062B2, “Crystalline form” (sanofi-aventis U.S. LLC, priority 2005, dated 2010).
Each block holds one compound with its values, some of them ahead of it.

Experiments:
[1] = test system: animal models of rheumatoid arthritis; test: Animal models of rheumatoid arthritis; assay type: in vivo; conditions: by modulating the immune response
[2] = target: peripheral-type benzodiazepine receptors (Homo sapiens, UniProt P30536); conditions: cited from earlier work
peripheral-type benzodiazepine receptors, sequence (P30536 whole entry): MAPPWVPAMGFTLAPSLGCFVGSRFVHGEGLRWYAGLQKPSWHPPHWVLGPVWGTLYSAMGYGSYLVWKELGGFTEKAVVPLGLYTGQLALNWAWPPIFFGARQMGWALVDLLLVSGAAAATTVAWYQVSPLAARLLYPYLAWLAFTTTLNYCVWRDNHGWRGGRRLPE

[3] = Preliminary absorption studies with standard formulations; assay type: in vivo
[4] = Stability testing of polymorphic form (FTIR); assay type: physicochemical
Protocol: Fourier Transform IR spectra were obtained with a Nicolet 750 Magna brand system. The drug substance was ground with dry potassium bromide (KBr) at a concentration of 1 mg drug substance/200 mg KBr and compressed into a disk (200 mg) at 10,000 lbs for analysis.
Samples were analyzed at 2 months. The chamber humidity was controlled via a saturated sodium chloride aqueous solution.

Compound: CN(C)C(=O)Cc1nn(-c2ccccc2)c(=O)c2c1c1ccc(Cl)cc1n2C [7-Chloro-N,N,5-trimethyl-4-oxo-3-phenyl-3,5-dihydro-4H-pyridazino[4,5-b]indole-1-acetamide]
pharmacological activity in animal models of rheumatoid arthritis [1]: has shown pharmacological activity
affinity for the peripheral-type benzodiazepine receptors [2]: high affinity

absorption of the drug [3]: limited absorption
Compound: CN(C)C(=O)Cc1nn(-c2ccccc2)c(=O)c2c1c1ccc(Cl)cc1n2C [Form I, 7-chloro-N,N,5-trimethyl-4-oxo-3-phenyl-3,5-dihydro-4H-pyridazino[4,5-b]indole-1-acetamide]

physical stability (conversion into other form) ([4]; normal storage conditions (room temperature)): does not convert into any other form
Compound: CN(C)C(=O)Cc1nn(-c2ccccc2)c(=O)c2c1c1ccc(Cl)cc1n2C [Form II, 7-chloro-N,N,5-trimethyl-4-oxo-3-phenyl-3,5-dihydro-4H-pyridazino[4,5-b]indole-1-acetamide]
physical stability (conversion to Form I by FTIR) ([4]; 50° C./75% relative humidity, open glass vials, two months, FIG. 9): no changes indicative of conversion to Form I
